Measured values published in patent US7241795B2, “Synthesis and antimicrobial activity of novel dicationic “reversed amidines”” (The University of North Carolina at Chapel Hill, priority 2000, dated 2007).
In brackets after ≈: the same amount, converted by molar mass. Like-named read-outs stand apart in the source and are kept apart here.

Key:
[1] = tested on: Fusarium solani; experiment: Expanded fungus panel, broth macrodilution (MIC/MFC), mold; format: cell-based
[2] = tested on: Crytococcus neoformans; experiment: Expanded fungus panel, broth macrodilution (MIC/MFC), yeast; format: cell-based; conditions: Cryptococcus neoformans, Crytococcus neoformans isolate H99
[3] = tested on: Rhizopus arrhizus; experiment: Expanded fungus panel, broth macrodilution (MIC/MFC), mold; format: cell-based
[4] = tested on: Candida albicans; experiment: Antifungal broth macrodilution susceptibility testing (MIC/MFC), yeast; format: cell-based; conditions: for MIC80 / MIC / MFC: Candida albicans; for MIC80: 80% of inoculum inhibited
[5] = tested on: Aspergillus flavus; experiment: Expanded fungus panel, broth macrodilution (MIC/MFC), mold; format: cell-based; conditions: for MIC: Aspergillus flavus, 100% of inoculum inhibited
[6] = tested on: M. tuberculosis H37Rv; experiment: Microplate Alamar Blue Assay (MABA) in BACTEC 12B medium; format: cell-based, Mycobacterium tuberculosis; conditions: Mycobacterium tuberculosis, H37RV; lowest concentration effecting ≧90% reduction of fluorescence; read-out: MTb MIC
[7] = tested on: d(CGCGAATTCGCG)2; experiment: DNA thermal melting (ΔTm); format: binding; conditions: oligo = d(CGCGAATTCGCG)2
[8] = tested on: Aspergillus fumigatus; experiment: Antifungal broth macrodilution susceptibility testing (MIC/MFC), mold; format: cell-based; conditions: for MIC80: 80% of inoculum inhibited
[9] = tested on: poly dA•dT; experiment: DNA thermal melting (ΔTm); format: binding
[10] = tested on: other pathogenic fungi; experiment: Expanded fungus panel, overall; format: cell-based
Description: Antifungal Test Organisms. The fungi used in this study for all the compounds in Table 1 included two reference strains C. albicans A39 and Aspergillus fumigatus (strain 168.95).
Medium. Antifungal susceptibility testing was performed with RPMI 1640 medium (Sigma Chemical Co., St. Louis, Mo.) with glutamine, but without sodium bicarbonate and buffered at pH 7.0 with 0.165 M morpholinopropanesulfonic acid.
Antifungal In Vitro Susceptibility Testing. Experiments for determination of MICs of yeasts were performed by the broth macrodilution method according to the recommendations of the National Committee for Clinical Laboratory Standards. See National Committee for Clinical Laboratory Standards. Reference method for broth dilution susceptibility testing of yeasts Document M27-T. Tentative standard, National Committee for Clinical Laboratory Standards, Wayne, Pa., 1995). […] Briefly, this method specifies the use of an inoculum grown at 35° C. and adjusted to a concentration of 0.5×10^3 to 2.5×10^3 CFU/ml, incubation of the culture at 35° C., and reading at 48 h for all yeasts except for C. neoformans, for which the results are interpreted at 72 h. […]
The minimum fungicidal concentration (MFC) was determined by plating 100 μl aliquots from tubes showing complete inhibition of growth on Sabouraud agar plates. The lowest drug concentration that yielded three or fewer colonies was recorded as the MFC. […]

[11] = reference strain C. albicans A39, read-out: C. albicans MFC
[12] = reference strain C. albicans A39, read-out: C. albicans MIC
[13] = Aspergillus flavus isolate 107.96
[14] = Aspergillus flavus isolate 141.88
[15] = Aspergillus fumigatus, strain 168.95, read-out: Aspergillus fumigatus MIC

SMILES: Cc1ccc(N=Nc2ccc(-c3ccc(-c4ccc(N=Nc5ccc(C)cn5)cc4C)o3)c(C)c2)nc1 [Compound 6j, 2,5-Bis[2-methyl-4-(5-methyl-2-pyridylimino)aminophenyl]furan]
- activity against Fusarium solani, in words [1]: not very effective
- MFC ([1]; Fusarium solani isolate 152.89): 50 mg/L (≈ 103 µM)
- MIC80 ([1]; Fusarium solani isolate 152.89, 80% of inoculum inhibited): 3.12 mg/L (≈ 6.41 µM)
- MIC ([1]; Fusarium solani isolate 152.89, 100% of inoculum inhibited): 50 mg/L (≈ 103 µM)
- MFC [2]: > 100 mg/L
- MIC80 ([2]; 80% of inoculum inhibited): 1.56 mg/L (≈ 3.21 µM)
- MIC ([2]; 100% of inoculum inhibited): 1.56 mg/L (≈ 3.21 µM)
- activity versus Rhizopus arrhizus, in words [3]: good fungicidal activity
- MFC ([3]; Rhizopus arrhizus isolate 117.89): 1.56 mg/L (≈ 3.21 µM)
- MIC80 ([3]; Rhizopus arrhizus isolate 117.89, 80% of inoculum inhibited): 0.78 mg/L (≈ 1.6 µM)
- MIC ([3]; Rhizopus arrhizus isolate 117.89, 100% of inoculum inhibited): 1.56 mg/L (≈ 3.21 µM)
- activity against C. albicans, in words [4]: quite effective
- MIC80 ([4]; Candida albicans isolate 116.98): 1.56 mg/L (≈ 3.21 µM)
- MIC ([4]; Candida albicans isolate 116.98, 100% of inoculum inhibited, read-out: MIC 100%): 1.56 mg/L (≈ 3.21 µM)
- MFC ([4]; Candida albicans isolate 116.98, read-out: MFC): > 100 mg/L
- MIC80 ([4]; Candida albicans isolate 117.00): 0.78 mg/L (≈ 1.6 µM)
- MIC ([4]; Candida albicans isolate 117.00, 100% of inoculum inhibited, read-out: MIC 100%): 3.12 mg/L (≈ 6.41 µM)
- MFC ([4]; Candida albicans isolate 117.00, read-out: MFC): 25 mg/L (≈ 51.4 µM)
- MIC80 ([4]; Candida albicans isolate 126.97): 1.56 mg/L (≈ 3.21 µM)
- MIC ([4]; Candida albicans isolate 126.97, 100% of inoculum inhibited, read-out: MIC 100%): 3.12 mg/L (≈ 6.41 µM)
- MFC ([4]; Candida albicans isolate 126.97, read-out: MFC): 3.12 mg/L (≈ 6.41 µM)
- MIC80 ([4]; Candida albicans isolate 149.97): 0.78 mg/L (≈ 1.6 µM)
- MIC ([4]; Candida albicans isolate 149.97, 100% of inoculum inhibited, read-out: MIC 100%): 1.56 mg/L (≈ 3.21 µM)
- MFC ([4]; Candida albicans isolate 149.97, read-out: MFC): 6.25 mg/L (≈ 12.8 µM)
- MIC80 ([4]; Candida albicans isolate 156.97): 1.56 mg/L (≈ 3.21 µM)
- MIC ([4]; Candida albicans isolate 156.97, 100% of inoculum inhibited, read-out: MIC 100%): 3.15 mg/L (≈ 6.47 µM)
- MFC ([4]; Candida albicans isolate 156.97, read-out: MFC): > 100 mg/L
- MIC80 ([4]; Candida albicans isolate 159.95): 0.79 mg/L (≈ 1.62 µM)
- MIC ([4]; Candida albicans isolate 159.95, 100% of inoculum inhibited, read-out: MIC 100%): 1.58 mg/L (≈ 3.25 µM)
- MFC ([4]; Candida albicans isolate 159.95, read-out: MFC): 3.12 mg/L (≈ 6.41 µM)
- MIC80 ([4]; Candida albicans isolate A39): 1.56 mg/L (≈ 3.21 µM)
- MIC ([4]; Candida albicans isolate A39, 100% of inoculum inhibited, read-out: MIC 100%): 1.56 mg/L (≈ 3.21 µM)
- MFC ([4]; Candida albicans isolate A39, expanded panel, read-out: MFC): 25 mg/L (≈ 51.4 µM)
- MIC ([4]; read-out: C. albicans MIC): ≤ 1 mg/L
- MFC [4, 11]: 10 mg/L (≈ 20.6 µM)
- MIC [4, 12]: ≤ 2 mg/L
- activity versus Aspergillus flavus, in words [5]: less effective
- MFC [5, 13]: >100 mg/L
- MIC 80% ([5]; Aspergillus flavus isolate 107.96, 80% of inoculum inhibited): 3.12 mg/L (≈ 6.41 µM)
- MFC [5, 14]: >100 mg/L
- MIC 80% ([5]; Aspergillus flavus isolate 141.88, 80% of inoculum inhibited): 3.12 mg/L (≈ 6.41 µM)
- MIC80 ([5]; Aspergillus flavus isolate 194.99, 80% of inoculum inhibited): 3.12 mg/L (≈ 6.41 µM)
- MFC ([5]; Aspergillus flavus isolate 194.99, read-out: MFC): > 100 mg/L
- MIC [5, 13]: 50 mg/L (≈ 103 µM)
- MIC [5, 14]: 50 mg/L (≈ 103 µM)
- MIC ([5]; Aspergillus flavus isolate 194.99): 6.25 mg/L (≈ 12.8 µM)
- MIC [6]: 1 to 2 mg/L (≈ 2.06 to 4.11 µM)
- DNA Affinities ΔTm (oligo) [7]: 10.8
- activity against Aspergillus fumigatus, in words [8]: less effective
- MFC ([8]; Aspergillus fumigatus isolate 119.00, read-out: MFC): > 100 mg/L
- MFC ([8]; Aspergillus fumigatus isolate 153.90): >100 mg/L
- MFC ([8]; Aspergillus fumigatus isolate 165.86): >100 mg/L
- MFC ([8]; Aspergillus fumigatus isolate 168.95, expanded panel): >100 mg/L
- MFC ([8]; Aspergillus fumigatus isolate 182.99): >100 mg/L
- MIC80 ([8]; Aspergillus fumigatus, Aspergillus fumigatus isolate 119.00): 3.12 mg/L (≈ 6.41 µM)
- MIC ([8]; Aspergillus fumigatus, Aspergillus fumigatus isolate 119.00, 100% of inoculum inhibited, read-out: MIC 100%): 50 mg/L (≈ 103 µM)
- MIC80 ([8]; Aspergillus fumigatus, Aspergillus fumigatus isolate 153.90): 3.12 mg/L (≈ 6.41 µM)
- MIC ([8]; Aspergillus fumigatus, Aspergillus fumigatus isolate 153.90, 100% of inoculum inhibited, read-out: MIC 100%): 50 mg/L (≈ 103 µM)
- MIC80 ([8]; Aspergillus fumigatus, Aspergillus fumigatus isolate 165.86): 50 mg/L (≈ 103 µM)
- MIC ([8]; Aspergillus fumigatus, Aspergillus fumigatus isolate 165.86, 100% of inoculum inhibited, read-out: MIC 100%): 50 mg/L (≈ 103 µM)
- MIC80 ([8]; Aspergillus fumigatus, Aspergillus fumigatus isolate 168.95): 50 mg/L (≈ 103 µM)
- MIC ([8]; Aspergillus fumigatus, Aspergillus fumigatus isolate 168.95, 100% of inoculum inhibited, read-out: MIC 100%): 50 mg/L (≈ 103 µM)
- MIC80 ([8]; Aspergillus fumigatus, Aspergillus fumigatus isolate 182.99): 3.12 mg/L (≈ 6.41 µM)
- MIC ([8]; Aspergillus fumigatus, Aspergillus fumigatus isolate 182.99, 100% of inoculum inhibited, read-out: MIC 100%): 50 mg/L (≈ 103 µM)
- MIC [8, 15]: 10 mg/L (≈ 20.6 µM)
- DNA Affinities ΔTm (AT) [9]: 24.3

SMILES: COc1cc(N=Nc2ccccn2)ccc1-c1ccc(-c2ccc(N=Nc3ccccn3)cc2OC)o1 [Compound 6k, 2,5-Bis[2-methoxy-4-(2-pyridylimino)aminophenyl]furan]
- activity in the expanded fungus panel, in words [10]: did not show significant activity
- activity against C. albicans, in words [4]: fungicidal
- MIC ([4]; read-out: C. albicans MIC): ≤ 1 mg/L
- MFC [4, 11]: ≤ 1 mg/L
- MIC [4, 12]: ≤ 2 mg/L
- MIC [6]: 1 to 2 mg/L (≈ 2.04 to 4.08 µM)
- DNA Affinities ΔTm (oligo) [7]: 7.8
- activity against Aspergillus fumigatus, in words [8]: fungicidal
- MIC ([8]; Aspergillus fumigatus, read-out: Aspergillus fumigatus MIC): ≤ 1 mg/L
- MFC ([8]; Aspergillus fumigatus, strain 168.95, read-out: Aspergillus fumigatus MFC): ≤ 1 mg/L
- MIC [8, 15]: 1 mg/L (≈ 2.04 µM)
- DNA Affinities ΔTm (AT) [9]: 19.0
